Measured values from patent publication EP4356909A1, “1-(SULFONYL)-N-PHENYLPYRROLIDINE-2-CARBOXAMIDES DERIVATIVES AND USE THEREOF” (Selabtec Sciences, SLU, priority 2022, dated 2024).

How the values were obtained:
[1] = test system: U2OS; experiment: Proliferation assay, Methyl violet staining; format: cell-based; conditions: osteosarcoma (OS) cell line; 5 days of incubation (Figure 7)
Method: (§1) Compound INK-150.46 (or SLB-605) was assayed against several cancer cell lines in proliferation assays.
(§2) The measurements were taken using an in vitro test to measure cell growth based on Methyl violet staining after 5 days of incubation with the aforementioned drug or control vehicle (DMSO). The procedure was carried out in a 96-well plate. After 1 wash with phosphate-buffered saline (PBS), cells were stained for 20 minutes at room temperature with Methyl violet (0.5 % w/v in water). After 5 washes with PBS, and the addition of acetic acid (10% in water), plates were read in a spectrophotometer at 590 nm. All conditions were tested in 6 independent wells and results expressed as a mean of all replicates.

[2] = test system: RH4; experiment: Proliferation assay, Methyl violet staining; format: cell-based; conditions: inhibition values; rhabdomyosarcoma cell line; 5 days of incubation; mean of 6 wells
Method: as §1, §2

[3] = test system: SHSY5Y; experiment: Proliferation assay, Methyl violet staining; format: cell-based; conditions: inhibition values; neuroblastoma cell line; 5 days of incubation; mean of 6 wells
Method: as §1, §2

[4] = test system: SKNBE2; experiment: Proliferation assay, Methyl violet staining; format: cell-based; conditions: inhibition values; neuroblastoma cell line; 5 days of incubation; mean of 6 wells
Method: as §1, §2

[5] = test system: RD; experiment: Proliferation assay, Methyl violet staining; format: cell-based; conditions: inhibition values; rhabdomyosarcoma cell line; 5 days of incubation; mean of 6 wells
Method: as §1, §2

[6] = test system: NFATc activation in HEK 293T cells; experiment: NFATc activation, 3xNFAT-luc dual-luciferase reporter assay; format: cell-based, human; conditions: HEK 293T cells stimulated with ionomycin, PMA and CaCl2; compounds for 2 hours; at least at 100, 50 and 20 µM (Figure 1)
Method: To determine the effect of compounds of formula (I) on NFATc activation, HEK 293T cells were transfected with 3xNFAT-luc reporter gene and Renilla-luc plasmid as control of gene transfection. After 24 hours, to activate the cellular CN -NFATc signaling pathway, cells were stimulated with ionomycin (lo), PMA and CaCl2 for 4 h to raise intracellular concentration of calcium. As positive control of inhibition of CN activity, cells were treated with 1 µM of CsA 30 min prior to Io/PMA/CaCl2 stimulation. Then, cells were treated with compounds of formula (I) at several concentrations for 2 hours and light units analyzed following manufacture's protocol of the dual-luciferase reporter assay system (Figure 1, Functional effect of pair related structure compounds on NFATc activation).

Compound: Cc1c(Cl)cc(F)cc1S(=O)(=O)N1CCC[C@H]1C(=O)N(Cn1nnc2ccccc21)c1ccccc1 [INK-150.46, (S)-N-((1H-Benzo[d][1,2,3]triazol-1-yl)methyl)-1-((3-chloro-5-fluoro-2-methylphenyl)sulfonyl)-N-phenylpyrrolidine-2-carboxamide]
- inhibitory effect over U2OS (proliferation) [1]: inhibitory effect
- Effect over RH4 (%) [2]: 78.1%
- Effect over SHSY5Y (%) [3]: 48.8%
- Effect over SKNBE2 (%) [4]: 59.5%
- Effect over RD (%) [5]: 75%
- NFATc activation [6]: strongly inhibits NFATc activation
